Patent US20120258940A1, “METHOD FOR TREATING HAEMATOLOGICAL CANCERS” (priority 2009, published 2012)

How the values were obtained:
Format in all cases: cell-based
[1] = tested on: multiple myeloma cell line KMS-11; test: Cell viability (CellTiter GLO), FGFR inhibitor + glucocorticoid combination, KMS-11; details: for CI of Cpd. + 100 nM Dex: 72 hours; for Synergy Score: Loewe Additivity model
Protocol: (§1) Cell viability was measured by CellTiter GLO. For the combination treatments in FIGS. 1 and 2, the Y axes were cell viability was normalized to the wells treated with dexamethasone alone.
(§2) All FGFR inhibitors were desolved in DMSO as a 10 mM stock. Serial dilutions, as indicated in each figure, were made as 3× solutions in culture medium before adding to the cell cultures. Dexamethasone and halometasone were dissolved in 100% ethanol as a 10 millimol master stock. Serial dilutions, as indicated in each figure, were made as 3× solutions in culture medium. Cell lines, cell culture and treatment:
(§3) KMS-11 and OPM-2 cell lines can be purchased from HSRRB (Japan) and DSMZ (Germany), respectively. Early passage KMS-11 and OPM-2 cell lines were cultured in RPMI-1640 (ATCC Catalog#30-2001) supplemented with 10% FBS for 1 or 2 passages before treatment. Twenty thousand cells were seeded in each well of a 96-well plate and grew for 24 hours. Cells were then treated in triplicate with vehicle, an FGFR inhibitor (Compound A, B), a glucocorticoid (Dexamethasone or halometasone) alone or a combination at indicated concentrations in 5% CO2 at 37 C for 72 hours. Viability was determined by CellTiter GLO (Promega, Cat#G755B) using identical method as described by the manufacturer. Data analysis:
(§4) Raw CellTiter GLO relative […] unit (RFU) values were acquired using a microplate reader (PerkinElmer Precisely, Perkin Elmer Life and Analytical Sciences). Data analysis was performed using the Chalice software developed by CombinatoRx (Zalicus Inc., Cambridge, Mass., USA). Specifically, the Loewe Additivity (ADD) model was used as the combination reference in the EXAMPLES.

[2] = tested on: multiple myeloma cell line OPM-2; test: Cell viability (CellTiter GLO), FGFR inhibitor + glucocorticoid combination, OPM-2; details: for CI of Cpd. + 100 nM Dex: 72 hours; for Synergy Score: Loewe Additivity model
Protocol: as §1, §2, §3, §4

[3] = tested on: multiple myeloma cell lines; test: Inhibition of proliferation of multiple myeloma cell lines by combinations (cell line not specified); details: with Dexamethasone
Protocol: as §2, §3
Raw CellTiter GLO relative […] unit (RFU) values were acquired using a microplate reader (PerkinElmer Precisely, Perkin Elmer Life and Analytical Sciences). Data analysis was performed using the Chalice software developed by CombinatoRx (Zalicus Inc., Cambridge, Mass., USA). […]

[4] = Cpd. 0.0001 nM + 100 nM dexamethasone
[5] = Cpd. 0.001 nM + 100 nM dexamethasone
[6] = Cpd. 0.01 nM + 100 nM dexamethasone
[7] = Cpd. 0.1 nM + 100 nM dexamethasone
[8] = Cpd. 1 nM + 100 nM dexamethasone
[9] = Cpd. 10 nM + 100 nM dexamethasone
[10] = Cpd. 100 nM + 100 nM dexamethasone
[11] = Cpd. 1000 nM + 100 nM dexamethasone
[12] = Cpd. 10000 nM + 100 nM dexamethasone
[13] = in combination with Dexamethasone

CN1CCN(c2ccc3nc(-c4c(N)c5c(F)cccc5[nH]c4=O)[nH]c3c2)CC1 [Compound B, 4-amino-5-fluoro-3-[6-(4-methylpiperazin-yl)-1H-benzimidazol-2-yl]quinolin-2(1H)-one]
CI of Cpd. + 100 nM Dex [1, 4]: 2.71E−01 | CI of Cpd. + 100 nM Dex [1, 5]: 1.72E−01 | CI of Cpd. + 100 nM Dex [1, 6]: 1.73E−01 | CI of Cpd. + 100 nM Dex [1, 7]: 1.32E−01 | CI of Cpd. + 100 nM Dex [1, 8]: 1.23E−01 | CI of Cpd. + 100 nM Dex [1, 9]: 9.00E−03 | CI of Cpd. + 100 nM Dex [1, 10]: 1.00E−03 | CI of Cpd. + 100 nM Dex [1, 11]: 4.00E−03 | CI of Cpd. + 100 nM Dex [1, 12]: 3.00E−03 | Chemical 1 concentration in the combination at 50% growth inhibition [1, 13]: B (0.74) mM | Combination Index (CI) at 50% inhibition [1, 13]: 0.050 ± 0.004 | Synergy call [1, 13]: Very strong | Synergy Score [1, 13]: 18 | Chemical 1 concentration in the combination at 50% growth inhibition ([1]; in combination with Sicorten): B (0.45) mM | Combination Index (CI) at 50% inhibition ([1]; in combination with Sicorten): 0.371 ± 0.003 | Synergy Score ([1]; in combination with Sicorten): 4 | Combination effect on cell viability (figure legend) ([1]; with Sicorten): synergistic effect | Combination effect on cell viability (figure legend) ([1]; with dexamethasone): synergistic effect | CI of Cpd. + 100 nM Dex [2, 4]: 1.64E+00 | CI of Cpd. + 100 nM Dex [2, 5]: 1.38E+00 | CI of Cpd. + 100 nM Dex [2, 6]: 1.17E+00 | CI of Cpd. + 100 nM Dex [2, 7]: 1.10E+00 | CI of Cpd. + 100 nM Dex [2, 8]: 1.00E+00 | CI of Cpd. + 100 nM Dex [2, 9]: 7.94E−01 | CI of Cpd. + 100 nM Dex [2, 10]: 1.86E−01 | CI of Cpd. + 100 nM Dex [2, 11]: 5.80E−02 | CI of Cpd. + 100 nM Dex [2, 12]: 1.00E−03 | Chemical 1 concentration in the combination at 50% growth inhibition [2, 13]: B (1.8) mM | Combination Index (CI) at 50% inhibition [2, 13]: 0.350 ± 0.010 | Synergy Score [2, 13]: 10 | Chemical 1 concentration in the combination at 50% growth inhibition ([2]; in combination with Sicorten): B (10) mM | Combination Index (CI) at 50% inhibition ([2]; in combination with Sicorten): 0.281 ± 0.005 | Synergy call ([2]; in combination with Sicorten): Strong | Synergy Score ([2]; in combination with Sicorten): 14 | Combination effect on cell viability (figure legend) ([2]; with Sicorten): synergistic effect | Combination effect on cell viability (figure legend) ([2]; with dexamethasone): synergistic effect

CCN(CC)CCCCNc1ncc2cc(-c3cc(OC)cc(OC)c3)c(NC(=O)NC(C)(C)C)nc2n1 [Compound E, 1-tert-Butyl-3-[6-(3,5-dimethoxy-phenyl)-2-(4-diethylamino-butylamino)-pyrido[2,3-d]pyrimidin-7-yl]-urea, reference compound]
Combination effect on cell viability (figure legend) ([1]; with dexamethasone): synergistic effect | Combination effect on cell viability (figure legend) ([2]; with dexamethasone): synergistic effect

C[C@@H]1C[C@H]2[C@@H]3CCC4=CC(=O)C=C[C@]4(C)[C@@]3(F)[C@@H](O)C[C@]2(C)[C@@]1(O)C(=O)CO [Dexamethasone, reference compound]
Chemical 2 concentration in the combination at 50% growth inhibition ([1]; in combination with Compound A): (0.14) mM | Chemical 2 concentration in the combination at 50% growth inhibition ([1]; in combination with Compound B): (0.32) mM | Chemical 2 concentration in the combination at 50% growth inhibition ([2]; in combination with Compound A): (0.30) mM | Chemical 2 concentration in the combination at 50% growth inhibition ([2]; in combination with Compound B): (0.30) mM

C[C@@H]1C[C@H]2[C@@H]3C[C@H](F)C4=CC(=O)C(Cl)=C[C@]4(C)[C@@]3(F)[C@@H](O)C[C@]2(C)[C@@]1(O)C(=O)CO [Sicorten, halometasone, reference compound]
Chemical 2 concentration in the combination at 50% growth inhibition ([1]; in combination with Compound A): Sicorten (0.01) mM | Chemical 2 concentration in the combination at 50% growth inhibition ([1]; in combination with Compound B): Sicorten (0.02) mM | Chemical 2 concentration in the combination at 50% growth inhibition ([2]; in combination with Compound A): Sicorten (0.03) mM | Chemical 2 concentration in the combination at 50% growth inhibition ([2]; in combination with Compound B): Sicorten (0.02) mM

CCN1CCN(c2ccc(Nc3cc(N(C)C(=O)Nc4c(Cl)c(OC)cc(OC)c4Cl)ncn3)cc2)CC1 [Compound A, 3-(2,6-dichloro-3,5-dimethoxy-phenyl)-1-{6-[4-(4-ethyl-perpazin-1-yl)-phenylamino]-pyrimidin-4-yl}-1-methyl urea]
Reduction by Dexamethasone of the concentration required to achieve 50% of inhibition of proliferation [3]: at least a million fold | CI of Cpd. + 100 nM Dex [1, 4]: 6.10E−02 | CI of Cpd. + 100 nM Dex [1, 5]: 2.20E−02 | CI of Cpd. + 100 nM Dex [1, 6]: 9.00E−03 | CI of Cpd. + 100 nM Dex [1, 7]: 5.00E−03 | CI of Cpd. + 100 nM Dex [1, 8]: 1.00E−03 | CI of Cpd. + 100 nM Dex [1, 9]: 4.17E−05 | CI of Cpd. + 100 nM Dex [1, 10]: 1.25E−06 | CI of Cpd. + 100 nM Dex [1, 11]: 1.21E−06 | CI of Cpd. + 100 nM Dex [1, 12]: 1.43E−12 | Chemical 1 concentration in the combination at 50% growth inhibition [1, 13]: A (1.5) mM | Combination Index (CI) at 50% inhibition [1, 13]: 0.077 ± 0.001 | Synergy call [1, 13]: Very strong | Synergy Score [1, 13]: 35 | Chemical 1 concentration in the combination at 50% growth inhibition ([1]; in combination with Sicorten): A (4.2) mM | Combination Index (CI) at 50% inhibition ([1]; in combination with Sicorten): 0.220 ± 0.006 | Synergy call ([1]; in combination with Sicorten): Strong | Synergy Score ([1]; in combination with Sicorten): 10 | Combination effect on cell viability (figure legend) ([1]; with Sicorten): synergistic effect | Combination effect on cell viability (figure legend) ([1]; with dexamethasone): synergistic effect | CI of Cpd. + 100 nM Dex [2, 4]: 1.39E−01 | CI of Cpd. + 100 nM Dex [2, 5]: 5.00E−02 | CI of Cpd. + 100 nM Dex [2, 6]: 4.90E−02 | CI of Cpd. + 100 nM Dex [2, 7]: 1.50E−02 | CI of Cpd. + 100 nM Dex [2, 8]: 1.10E−02 | CI of Cpd. + 100 nM Dex [2, 9]: 3.00E−03 | CI of Cpd. + 100 nM Dex [2, 10]: 7.00E−03 | CI of Cpd. + 100 nM Dex [2, 11]: 5.90E−02 | CI of Cpd. + 100 nM Dex [2, 12]: 4.40E−02 | Chemical 1 concentration in the combination at 50% growth inhibition [2, 13]: A (0.03) mM | Combination Index (CI) at 50% inhibition [2, 13]: 0.034 ± 0.003 | Synergy call [2, 13]: Very strong | Synergy Score [2, 13]: 29 | Chemical 1 concentration in the combination at 50% growth inhibition ([2]; in combination with Sicorten): A (1.6) mM | Combination Index (CI) at 50% inhibition ([2]; in combination with Sicorten): 0.282 ± 0.007 | Synergy call ([2]; in combination with Sicorten): Strong | Synergy Score ([2]; in combination with Sicorten): 17 | Combination effect on cell viability (figure legend) ([2]; with Sicorten): synergistic effect | Combination effect on cell viability (figure legend) ([2]; with dexamethasone): synergistic effect
